Results: patent US8492371B2, “Compounds as cannabinoid receptor ligands” (priority 2009, dated 2013)

Key:
human CB2 receptors = target: T1, human CB2 receptors (Homo sapiens, UniProt P34972); assay: Human CB2 radioligand binding assay ([3H]CP-55,940 competition)
T1 construct: expressed in transfected cells; host or cells: HEK293
Protocol: The CB1 and CB2 radioligand binding assays described herein are utilized to determine the selectivity of compounds of the present invention for binding to CB2 relative to CB1 receptors.
(§1) HEK293 cells stably expressing human CB2 receptors were grown until a confluent monolayer was formed. Briefly, the cells were harvested and homogenized in TE buffer (50 mM Tris-HCl, 1 mM MgCl2, and 1 mM EDTA) using a polytron for 2×10 second bursts in the presence of protease inhibitors, followed by centrifugation at 45,000×g for 20 minutes. The final membrane pellet was re-homogenized in storage buffer (50 mM Tris-HCl, 1 mM MgCl2, and 1 mM EDTA and 10% sucrose) and frozen at −78° C. until used. Saturation binding reactions were initiated by the addition of membrane preparation (protein concentration of 5 μg/well for human CB2) into wells of a deep well plate containing ([^3H]CP-55,940 (120 Ci/mmol, a nonselective CB agonist commercially available from Tocris) in assay buffer (50 mM Tris, 2.5 mM EDTA, 5 mM MgCl2, and 0.5 mg/mL fatty acid free BSA, pH 7.4). After 90 min incubation at 30° C., binding reaction was terminated by the addition of 300 μL/well of cold assay buffer followed by rapid vacuum filtration through a UniFilter-96 GF/C filter plates (pre-soaked in 1 mg/mL BSA for 2 hours). The bound activity was counted in a TopCount using Microscint-20. Saturation experiments were conducted with twelve concentrations of [^3H]CP-55,940 ranging from 0.01 to 8 nM. Competition experiments were conducted with 0.5 nM [^3H]CP-55,940 and five concentrations of displacing ligands selected from the range of 0.01 nM to 10 μM. The addition of 10 μM unlabeled CP-55,940 (Tocris, Ellisville, Mo.) was used to assess nonspecific binding.

rat CB2 receptors = target: T2, rat CB2 receptors (Rattus norvegicus, UniProt Q9QZN9); assay: Rat CB2 radioligand binding assay ([3H]CP-55,940 competition)
T2 construct: expressed in transfected cells; host or cells: HEK293
T2 sequence (Q9QZN9 1-360): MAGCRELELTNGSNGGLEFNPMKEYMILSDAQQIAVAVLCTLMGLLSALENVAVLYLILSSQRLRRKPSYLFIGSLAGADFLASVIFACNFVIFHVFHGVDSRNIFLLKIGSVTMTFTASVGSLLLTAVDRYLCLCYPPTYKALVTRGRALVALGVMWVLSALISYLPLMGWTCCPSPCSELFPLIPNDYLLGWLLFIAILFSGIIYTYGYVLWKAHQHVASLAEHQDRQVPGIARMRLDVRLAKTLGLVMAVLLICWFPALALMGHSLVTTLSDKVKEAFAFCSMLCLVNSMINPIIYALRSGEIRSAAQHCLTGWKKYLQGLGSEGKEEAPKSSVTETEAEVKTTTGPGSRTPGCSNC
Protocol: as §1, with “expressing rat” for “expressing human”, “of 20” for “of 5”, “for rat” for “for human”, “containing [^3H]CP-55,940” for “containing ([^3H]CP-55,940”, “After 45” for “After 90”, “[…]” for “10 μM.”

T1 sequence (P34972 whole entry): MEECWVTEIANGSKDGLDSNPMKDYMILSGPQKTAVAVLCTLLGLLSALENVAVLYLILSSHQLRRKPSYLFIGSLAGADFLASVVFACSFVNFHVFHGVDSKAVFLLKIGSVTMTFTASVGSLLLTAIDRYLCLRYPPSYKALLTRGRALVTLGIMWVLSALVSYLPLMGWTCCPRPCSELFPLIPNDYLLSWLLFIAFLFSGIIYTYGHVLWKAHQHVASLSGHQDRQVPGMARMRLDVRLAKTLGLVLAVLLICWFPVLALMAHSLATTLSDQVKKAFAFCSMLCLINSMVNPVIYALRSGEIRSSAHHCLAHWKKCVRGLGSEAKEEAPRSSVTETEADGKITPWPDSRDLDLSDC

SMILES | Ki (human CB2 receptors) | Ki (rat CB2 receptors)
Cn1c(C(C)(C)C)c/c(=N\C(=O)c2cc(C(F)(F)F)ccc2OCC2CC(=NO)C2)n1C[C@H]1CCCO1 (stereo partly drawn) [Example 119, N-{(3E)-5-tert-butyl-1-methyl-2-[(2R)-tetrahydrofuran-2-ylmethyl]-1,2-dihydro-3H-pyrazol-3-ylidene}-2-{[3-(hydroxyimino)cyclobutyl]methoxy}-5-(trifluoromethyl)benzamide] | 70 nM | 25 nM
CN(C)CCOc1ccc(C(F)(F)F)cc1C(=O)/N=c1\oc(C(C)(C)C)cn1C[C@H]1CCCO1 [Example 108, N-[(2Z)-5-tert-butyl-3-[(2R)-tetrahydrofuran-2-ylmethyl]-1,3-oxazol-2(3 H)-ylidene]-2-[2-(dimethylamino)ethoxy]-5-(trifluoromethyl)benzamide] | 148 nM | 55 nM
Cn1c(C(C)(C)C)c/c(=N\C(=O)c2cc(F)ccc2Cl)n1C[C@H]1CCCO1 [Example 50, N-{(3E)-5-tert-butyl-1-methyl-2-[(2R)-tetrahydrofuran-2-ylmethyl]-1,2-dihydro-3H-pyrazol-3-ylidene}-2-chloro-5-fluorobenzamide] | 63 nM | 54 nM
Cn1c(C(C)(C)C)c/c(=N\C(=O)c2cc(C(F)(F)F)ccc2OC(C)(C)C)n1C[C@H]1CCCO1 [Example 25, 2-tert-butoxy-N-{(3E)-5-tert-butyl-1-methyl-2-[(2R)-tetrahydrofuran-2-ylmethyl]-1,2-dihydro-3H-pyrazol-3-ylidene}-5-(trifluoromethyl)benzamide] | 101 nM | 40 nM
Cn1c(C(C)(C)C)c/c(=N\C(=O)c2cc(C(F)(F)F)ccc2OCCC2(O)CCCC2)n1C[C@H]1CCCO1 [Example 94, N-{(3E)-5-tert-butyl-1-methyl-2-[(2R)-tetrahydrofuran-2-ylmethyl]-1,2-dihydro-3H-pyrazol-3-ylidene}-2-[2-(1-hydroxycyclopentyl)ethoxy]-5-(trifluoromethyl)benzamide] | 2.6 nM | 3.3 nM
CO[C@H]1C[C@@H](COc2ccc(C(F)(F)F)cc2C(=O)/N=c2\cc(C(C)(C)C)n(C)n2C[C@H]2CCCO2)C1 [Example 18] | 51 nM | 99 nM
CC(F)COc1ccc(C(F)(F)F)cc1C(=O)/N=c1\cc(C(C)(C)C)n(C)n1C[C@H]1CCCO1 (stereo partly drawn) [Example 40, N-{(3E)-5-tert-butyl-1-methyl-2-[(2R)-tetrahydrofuran-2-ylmethyl]-1,2-dihydro-3H-pyrazol-3-ylidene}-2-(2-fluoropropoxy)-5-(trifluoromethyl)benzamide] | 32 nM | 22 nM
Cn1c(C(C)(C)C)c/c(=N\C(=O)c2cc(Br)ccc2OCCF)n1C[C@H]1CCCO1 [Example 59, 5-bromo-N-{(3E)-5-tert-butyl-1-methyl-2-[(2R)-tetrahydrofuran-2-ylmethyl]-1,2-dihydro-3H-pyrazol-3-ylidene}-2-(2-fluoroethoxy)benzamide] | 28 nM | 27 nM
CCOc1ccc(C(F)(F)F)cc1C(=O)/N=c1\cc(C(C)(C)C)n(C)n1C[C@H]1CCCO1 [Example 14, N-{(3E)-5-tert-butyl-1-methyl-2-[(2R)-tetrahydrofuran-2-ylmethyl]-1,2-dihydro-3H-pyrazol-3-ylidene}-2-ethoxy-5-(trifluoromethyl)benzamide] | 35 nM | 24 nM
COCCCOc1ccc(C(F)(F)F)cc1C(=O)/N=c1\cc(C(C)(C)C)n(C)n1C[C@H]1CCCO1 [Example 30, N-{(3E)-5-tert-butyl-1-methyl-2-[(2R)-tetrahydrofuran-2-ylmethyl]-1,2-dihydro-3H-pyrazol-3-ylidene}-2-(3-methoxypropoxy)-5-(trifluoromethyl)benzamide] | 3.8 nM | 11 nM
Cn1c(C(C)(C)C)c/c(=N\C(=O)c2cc(C(F)(F)F)ccc2OC[C@H]2C[C@@H](O)C2)n1C[C@H]1CCCO1 [Example 16, N-{(3E)-5-tert-butyl-1-methyl-2-[(2R)-tetrahydrofuran-2-ylmethyl]-1,2-dihydro-3H-pyrazol-3-ylidene}-2-[(cis-3-hydroxycyclobutyl)methoxy]-5-(trifluoromethyl)benzamide] | 147 nM | 84 nM
C/C=C/c1ccc(C(F)(F)F)cc1C(=O)/N=c1\cc(C(C)(C)C)n(C)n1C[C@H]1CCCO1 [Example 99, N-{(3E)-5-tert-butyl-1-methyl-2-[(2R)-tetrahydrofuran-2-ylmethyl]-1,2-dihydro-3H-pyrazol-3-ylidene}-2-[(1E)-prop-1-enyl]-5-(trifluoromethyl)benazmide] | 12 nM | 3.5 nM
Cn1c(C(C)(C)C)c/c(=N\C(=O)c2cccc(S(F)(F)(F)(F)F)c2)n1C[C@H]1CCCO1 [Example 15, N-{(3E)-5-tert-butyl-1-methyl-2-[(2R)-tetrahydrofuran-2-ylmethyl]-1,2-dihydro-3H-pyrazol-3-ylidene}-3-(pentafluoro-lambda˜6˜sulfanyl)benzamide] | 2.8 nM | 1.2 nM
Cc1ccc(C(F)(F)F)cc1C(=O)/N=c1\cc(C(C)(C)C)n(C)n1C[C@H]1CCCO1 [Example 86] | 11 nM | 3.3 nM
COc1ccc(Cl)cc1C(=O)/N=c1\sc(C(C)(C)C(F)(F)F)nn1C[C@H]1CCCO1 [Example 9, 5-chloro-2-methoxy-N-[(2Z)-3-[(2R)-tetrahydrofuran-2-ylmethyl]-5-(2,2,2-trifluoro-1,1-dimethylethyl)-1,3,4-thiadiazol-2(3H)-ylidene]benzamide] | 33 nM | 1.4 nM
Cn1c(C(C)(C)C)c/c(=N\C(=O)c2cc(Br)cc3c2OCC3)n1C[C@H]1CCCO1 [Example 60, 5-bromo-N-{(3E)-5-tert-butyl-1-methyl-2-[(2R)-tetrahydrofuran-2-ylmethyl]-1,2-dihydro-3H-pyrazol-3-ylidene}-2,3-dihydro-1-benzofuran-7-carboxamide] | 66 nM | 46 nM
Cn1c(C(C)(C)C)c/c(=N\C(=O)c2cc(C(F)(F)F)ccc2NCCF)n1C[C@H]1CCCO1 [Example 39, N-{(3E)-5-tert-butyl-1-methyl-2-[(2R)-tetrahydrofuran-2-ylmethyl]-1,2-dihydro-3H-pyrazol-3-ylidene}-2-[(2-fluoroethyl)amino]-5-(trifluoromethyl)benzamide] | 8.9 nM | 3.8 nM
COC/C=C/c1ccc(C(F)(F)F)cc1C(=O)/N=c1\cc(C(C)(C)C)n(C)n1C[C@H]1CCCO1 [Example 89, N-{(3E)-5-tert-butyl-1-methyl-2-[(2R)-tetrahydrofuran-2-ylmethyl]-1,2-dihydro-3H-pyrazol-3-ylidene}-2-[(1E)-3-methoxyprop-1-enyl]-5-(trifluoromethyl)benzamide] | 9.8 nM | 5.8 nM
CC(C)CS(=O)(=O)Nc1ccc(C(F)(F)F)cc1C(=O)/N=c1\cc(C(C)(C)C)n(C)n1C[C@H]1CCCO1 [Example 125, N-{(3E)-5-tert-butyl-1-methyl-2-[(2R)-tetrahydrofuran-2-ylmethyl]-1,2-dihydro-3H-pyrazol-3-ylidene}-2-[(isobutylsulfonyl)amino]-5-(trifluoromethyl)benzamide] | 32 nM | 25 nM
